Test system: TNF-α and LTB4
Test: LPS and FMLP-induced TNF-α and LTB4 assays in human whole blood
Type: cell-based
Conditions: LPS 1 μg/mL 24 h, then LPS and fMLP 1 μM challenge, marker (TNF-α or LTB4) not specified
Experimental: Whole blood provides a protein and cell-rich milieu appropriate for the study of biochemical efficacy of anti-inflammatory compounds such as PDE4-selective inhibitors. […] Upon stimulation with LPS, activated monocytes express and secrete TNF-α up to 8 hours and plasma levels remain stable for 24 hours. Published studies have shown that inhibition of TNF-α by increasing intracellular cAMP via PDE4 inhibition and/or enhanced adenylyl cyclase activity occurs at the transcriptional level. […] As there is little LTB4 produced during a 24 hour LPS stimulation of whole blood, an additional LPS stimulation followed by fMLP challenge of human whole blood is necessary for LTB4 synthesis by activated neutrophils. Thus, by using the same blood sample, it is possible to evaluate the potency of a compound on two surrogate markers of PDE4 activity in the whole blood by the following procedure.
Fresh blood was collected in heparinized tubes by venipuncture from healthy human volunteers (male and female). These subjects had no apparent inflammatory conditions and had not taken any NSAIDs for at least 4 days prior to blood collection. 500 μL aliquots of blood were pre-incubated with either 2 μL of vehicle (DMSO) or 2 μL of test compound at varying concentrations for 15 minutes at 37° C. […]

Compound: CC(C)NC(=O)c1cn(-c2cccc(C#Cc3cccc(C(C)(C)O)n3)c2)c2ncccc2c1=O [Example 28, N-Isopropyl-1-{3-[6-(1-hydroxy-1-methylethyl)-2-pyridinylethynyl]phenyl}-1,4-dihydro [1,8]naphthyridin-4-one-3-carboxamide]
- IC50: 0.01 to 2.4 µM
